Results reported in patent publication US20250170236A1, “A NOVEL CATIONIC ADJUVANT COMPOSITION” (STATENS SERUM INSTITUT, priority 2022, published 2025).

System: antigen-specific total IgG, IgG1 and IgG2c (H56 antigen)
Design: species or system CB6F1 mice
Conditions: mouse, in vivo

CpG ODN 2006 [CpG2006]
increased antibody responses (effect seen with DDA/MMG/CpG2006): not observed
